Values after ≈ are worked out from the molar mass of the structure shown.
What was measured:
Format in all cases: functional, organism-based
[1] = tested on: Mycobacterium tuberculosis; assay: Antitubercular activity against Mycobacterium tuberculosis H37Rv FQ-R1 harboring gyrB D94N mutant after 5 days
[2] = tested on: Mycobacterium tuberculosis; assay: Antitubercular activity against Mycobacterium tuberculosis H37Rv INH-R1 harboring katG Y155 mutant after 5 days
[3] = tested on: Mycobacterium tuberculosis; assay: Antitubercular activity against Mycobacterium tuberculosis H37Rv RIF-R1 harboring nrpoB S522L mutant after 5 days

COc1ccc(-c2csc(N/N=C(C)/C=C/c3ccc(OC)c(OC)c3)n2)cc1
IC50 [1]: 23 µM | IC90 [1]: > 50 µM | MIC [1]: 22 µM (≈ 9.01 µg/mL) | IC50 [2]: 12 µM | IC90 [2]: > 50 µM | MIC [2]: 15 µM (≈ 6.14 µg/mL) | IC50 [3]: 11 µM | IC90 [3]: > 50 µM | MIC [3]: 25 µM (≈ 10.2 µg/mL)

COc1ccc(/C=C/C(C)=N/Nc2nc(-c3ccc(OC)c(OC)c3)cs2)cc1OC
IC50 [1]: 18 µM | IC90 [1]: > 200 µM | MIC [1]: 30 µM (≈ 13.2 µg/mL) | IC50 [2]: 12 µM | IC90 [2]: > 200 µM | MIC [2]: 24 µM (≈ 10.5 µg/mL) | IC50 [3]: 9.2 µM | IC90 [3]: 27 µM | MIC [3]: 28 µM (≈ 12.3 µg/mL)

COc1ccc(/C=C/C(C)=N/Nc2nc(-c3c(OC)cccc3OC)cs2)cc1OC
IC50 [1]: 13 µM | IC90 [1]: > 25 µM | MIC [1]: 33 µM (≈ 14.5 µg/mL) | IC50 [2]: 9.1 µM | IC90 [2]: > 25 µM | MIC [2]: 32 µM (≈ 14.1 µg/mL) | IC50 [3]: 7 µM | IC90 [3]: 19 µM | MIC [3]: 17 µM (≈ 7.47 µg/mL)

CO[C@H]1/C=C/O[C@@]2(C)Oc3c(C)c(O)c4c(O)c(c(/C=N/N5CCN(C)CC5)c(O)c4c3C2=O)NC(=O)/C(C)=C\C=C\[C@H](C)[C@H](O)[C@@H](C)[C@@H](O)[C@@H](C)[C@H](OC(C)=O)[C@@H]1C [RIFAMPIN]
IC50 [1]: 0.013 µM | IC90 [1]: 0.039 µM | MIC [1]: 0.027 µM (≈ 0.0222 µg/mL) | IC50 [2]: 0.0084 µM | IC90 [2]: 0.022 µM | MIC [2]: 0.018 µM (≈ 0.0148 µg/mL) | IC50 [3]: 1.2 µM | IC90 [3]: 2.3 µM | MIC [3]: 2 µM (≈ 1.65 µg/mL)

C[C@H]1COc2c(N3CCN(C)CC3)c(F)cc3c(=O)c(C(=O)O)cn1c23.C[C@H]1COc2c(N3CCN(C)CC3)c(F)cc3c(=O)c(C(=O)O)cn1c23.O [LEVOFLOXACIN]
IC50 [1]: 12 µM | IC90 [1]: 22 µM | MIC [1]: 20 µM | IC50 [2]: 0.64 µM | IC90 [2]: 1.4 µM | MIC [2]: 1.2 µM | IC50 [3]: 0.59 µM | IC90 [3]: 0.91 µM | MIC [3]: 0.76 µM

COc1ccc(/C=C/C(C)=N/Nc2nc(-c3ccc(N)cc3)cs2)cc1OC
IC50 [1]: 2.3 µM | IC90 [1]: 33 µM | MIC [1]: 21 µM (≈ 8.28 µg/mL) | IC50 [2]: 0.68 µM | IC90 [2]: 3.8 µM | MIC [2]: 3.2 µM (≈ 1.26 µg/mL) | IC50 [3]: 0.54 µM | IC90 [3]: 2.6 µM | MIC [3]: 2.2 µM (≈ 0.868 µg/mL)

NNC(=O)c1ccncc1 [ISONIAZID]
IC50 [1]: 0.36 µM | IC90 [1]: 0.47 µM | MIC [1]: 0.35 µM (≈ 0.048 µg/mL) | IC50 [2]: > 200 µM | IC90 [2]: > 200 µM | MIC [2]: >200 µM | IC50 [3]: 0.15 µM | IC90 [3]: 0.21 µM | MIC [3]: 0.17 µM (≈ 0.0233 µg/mL)

COc1ccc(/C=C/C(C)=N/NC(N)=S)cc1OC
IC50 [1]: 2.8 µM | IC90 [1]: 16 µM | MIC [1]: 17 µM (≈ 4.75 µg/mL) | IC50 [2]: 1.3 µM | IC90 [2]: 6.6 µM | MIC [2]: 5.3 µM (≈ 1.48 µg/mL) | IC50 [3]: 1.1 µM | IC90 [3]: 4.6 µM | MIC [3]: 4 µM (≈ 1.12 µg/mL)
